# Source: PMC10046901, “Molecular Analysis of the Superior Efficacy of a Dual Epidermal Growth Factor Receptor (EGFR)-DNA-Targeting Combi-Molecule in Comparison with Its Putative Prodrugs 6-Mono-Alkylamino- and 6,6-Dialkylaminoquinazoline in a Human Osteosarcoma Xenograft Model” (Cells, 2023)
# Legend:
# Saos-2 = experiment: cells; type: cell-based, human; conditions: for IC50: Homo sapiens, SAOS-2, 120 h, read-out: IC50 growth inhibition
# [1] = biological target: T1, EGFR phosphorylation of tyrosine (Tyr) 1068 (Homo sapiens, UniProt P00533); experiment: P-EGFR in tumor tissue (immunohistochemistry, Western blot); type: in vivo; conditions: tumors 3 h after last dose, 80 mg/kg, N = 4
# T1 construct: Western blotting in tumor samples obtained from animals treated with ZR2002, JS61, JS84 or the vehicle; from tissue; host or cells: Saos-2 xenograft tumours grown subcutaneously in NSG mice
# T1 sequence (P00533 25-1210): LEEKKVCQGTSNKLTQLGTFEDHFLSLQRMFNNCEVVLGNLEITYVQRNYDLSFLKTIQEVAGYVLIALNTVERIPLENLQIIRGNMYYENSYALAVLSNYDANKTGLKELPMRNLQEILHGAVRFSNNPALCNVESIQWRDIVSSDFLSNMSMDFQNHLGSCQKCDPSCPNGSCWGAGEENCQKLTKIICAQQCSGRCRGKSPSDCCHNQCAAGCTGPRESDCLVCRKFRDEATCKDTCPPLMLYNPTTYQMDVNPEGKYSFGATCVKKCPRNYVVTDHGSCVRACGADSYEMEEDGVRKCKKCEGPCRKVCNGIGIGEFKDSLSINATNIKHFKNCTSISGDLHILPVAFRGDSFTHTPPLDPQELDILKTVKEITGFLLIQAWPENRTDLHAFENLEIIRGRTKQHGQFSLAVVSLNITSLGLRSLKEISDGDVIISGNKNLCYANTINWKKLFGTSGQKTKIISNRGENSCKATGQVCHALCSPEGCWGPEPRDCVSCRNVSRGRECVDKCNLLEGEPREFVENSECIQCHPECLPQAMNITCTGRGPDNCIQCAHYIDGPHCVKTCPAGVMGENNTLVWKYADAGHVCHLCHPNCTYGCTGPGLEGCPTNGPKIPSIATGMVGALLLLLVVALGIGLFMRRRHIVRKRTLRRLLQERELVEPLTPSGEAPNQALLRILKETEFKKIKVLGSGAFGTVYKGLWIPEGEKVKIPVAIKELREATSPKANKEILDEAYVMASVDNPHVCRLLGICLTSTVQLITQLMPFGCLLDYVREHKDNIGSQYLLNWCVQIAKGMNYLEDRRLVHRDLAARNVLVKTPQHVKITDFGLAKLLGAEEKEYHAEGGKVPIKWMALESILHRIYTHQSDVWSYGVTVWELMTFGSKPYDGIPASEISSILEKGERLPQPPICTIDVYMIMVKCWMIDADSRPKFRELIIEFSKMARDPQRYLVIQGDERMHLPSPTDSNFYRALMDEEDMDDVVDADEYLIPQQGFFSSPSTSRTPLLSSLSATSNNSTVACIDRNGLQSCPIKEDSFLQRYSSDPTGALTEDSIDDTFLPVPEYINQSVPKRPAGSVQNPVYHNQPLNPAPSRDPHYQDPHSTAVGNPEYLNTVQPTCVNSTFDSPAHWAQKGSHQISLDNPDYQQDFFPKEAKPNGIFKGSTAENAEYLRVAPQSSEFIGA
# Method: (§1) In order to study the drug pharmacokinetics, 1 last dose (the 11th dose) was administered 3 h prior to sacrifice and after a break of 5 days from the previous drug administration.
# (§2) At the end of the study, the mice were sacrificed, and the plasma and tumors were collected. The plasma was stored at −80 °C, and the tumor tissues were transversely cut into 2 parts: 1 was immediately frozen in liquid nitrogen and stored at −80 °C for Western blots and LC-MS analysis; the other was fixed in 4% paraformaldehyde and used for histology.
# The tumors were fixed for 36 h in 4% paraformaldehyde, transferred to 70% EtOH and paraffin-embedded. Sections 4 µm thick were deparaffinized, rehydrated and incubated for 20 min at 37 °C with anti-P-EGFR (1–100, ab40815, Abcam, Cambridge, UK) or anti-P-H2AX (1–100, sc-517348, Santa Cruz Biotechnology, Dallas, TX, USA), followed by secondary Ab incubation with OmniMap anti-Rb HRP (760–4311, Roche, Basel, Switzerland) at room temperature for 16 min, followed by the detection kit ChromoMap Kit (760–4304, Roche, Basel, Switzerland), and the slides were then counterstained with hematoxylin, dehydrated, cleared and cover-slipped. The slides were digitally scanned using an Aperio scanner scope XT.
# The tumor tissue samples were smashed with liquid nitrogen into a mortar, and the tumor powders were transferred to cold RIPA 1x buffer with an anti-protease and anti-phosphatase inhibitor cocktail (Roche, Basel, Switzerland) in ice for 1 h and sonicated. After centrifugation, the proteins were quantified and mixed in Laemmli buffer (Sigma-Aldrich, St. Louis, MO, USA), maintaining the same concentration.
# Cell lysates or tissue lysates were loaded onto 4–20% SDS-PAGE gels (mini-protean TGx stain-free, Bio-Rad, Hercules, CA, USA) and transferred to PVDF membranes that were pre-wetted with methanol. […] The quantification of the immunoblots was performed on digitalized images using ImageLab Software 6.1 (Bio-Rad, Hercules, CA, USA). […]
# [2] = Plasma and tumor metabolism by LC-MS and LC-MS/MS; type: in vivo, NSG male mice; conditions: 3 h after administration; for in vivo metabolism of administered drug (LC-MS): tumor and plasma; for in vivo metabolism of administered drug (LC-MS) / concentration of released ZR2002 in treated tumors relative to ZR2002-treated tumors: 80 mg/kg oral; for concentration of released ZR2002 in treated tumors relative to ZR2002-treated tumors: tumor, N = 4
# Method: as §1, §2
# Individual stock solutions of ZR2002 and Nitro-RB10 (IS) were prepared in DMSO at 10 mg/mL and, after, in MeOH at a concentration of 100 μg/mL. Intermediate dilutions were prepared using ACN:water (35:65, v:v). All stock and working solutions were stored at −20 °C and brought to room temperature before use.
# The dynamic range for the calibration curve ranged from 0.4 to 150 ng/mL, including 0.4, 1, 5, 10, 50, 80, 100 and 150 ng/mL in plasma and tumor matrix. These standards were prepared by spiking an appropriate volume of a standard spiking solution into the blank extracted plasma or tumor and vortexing. A total of 3 levels of QC samples were run during the analysis, including a low QC of 1 ng/mL, a mid QC of 10 ng/mL and a high QC of 100 ng/mL. These QC samples were prepared by spiking an appropriate volume of the spiking solution into the matrix blank. An appropriate volume of the IS spiking solution was then spiked into the calibration standards and QC samples to generate a final IS concentration of 15 ng/mL in the matrix. All samples were vortexed gently, completing the sample preparation process.
# An amount of 50 μL of each plasma sample was deproteinized with 200 µL of cold ACN. The samples were mixed for 10 s, shaken automatically for 10 min and centrifuged for 10 min at 15,000 rpm (21,130 rcf) at 4 °C. After centrifugation, the supernatants were loaded into Captiva-Enhanced Matrix Removal (EMR)-Lipid cartridges (1.0 mL; 40 mg; Agilent, Santa Clara, CA, USA) and settled for 5 min. The supernatants were eluted by applying a positive pressure (2 psi for 2 min) using a positive pressure manifold (PPM 96 processor, Agilent Techn.). The cartridges were washed with ACN:water (8:2, v:v) 100 μL, at 2–4 psi for 2 min, followed by a 1-min period of high pressure (6–9 psi) to drain the cartridges. The elutes were transferred to new tubes and dried under vacuum using a Centrivap sample concentrator (Centrivap Complete^TM, Labconco Corporation, Kansas City, MO, USA) at room temperature. The dried samples were stored at −20 °C before LC-MS analysis. On the day of analysis, the samples were reconstituted in 100 µL of MeOH, vortexed for 10 s, sonicated for 5 min (sonic bath, Symphony, VWR International, Radnor, PA, USA) and centrifuged for 5 min at 15,000 rpm. The supernatants were diluted 60 times in 35% ACN, and an appropriate volume of the IS spiking solution was then spiked into the samples to generate a final IS concentration of 15 ng/mL. At the end of the process, all samples were diluted 120 times. These final solutions were transferred to autosampler vials (350 µL, Thermo Fisher Scientific, Waltham, MA, USA), and 10 µL of each was injected into the LC-MS system.
# A weighted piece of tumor was crushed in a mortar with liquid nitrogen. To the tumor powder, 150 μL of water was added before deproteinizing the mixture with 600 µL of cold ACN. The samples were mixed for 10s, sonicated with ice in a sonication bath for 30 min to 1 h (Sonicate bath, VWR, International, Radnor, PA, USA) and centrifuged for 10 min at 15,000 rpm (21,130 rcf) at 4 °C (Centrifuge 5424 R, Eppendorf). After centrifugation, the supernatants were loaded into Captiva-Enhanced Matrix Removal (EMR)-Lipid cartridges (1.0 mL; 40 mg; Agilent) and settled for 5 min. The supernatants were eluted by applying a positive pressure (2 psi for 2 min) using a positive pressure manifold (PPM 96 processor, Agilent Techn.). […]
# U2-OS = experiment: cells; type: cell-based; conditions: Homo sapiens, U2OS, 120 h, read-out: IC50 growth inhibition
SMILES,IC50 (Saos-2) [nM],EGFR phosphorylation of Tyr 1068 in tumors vs vehicle [1],in vivo metabolism of administered drug (LC-MS) [2],concentration of released ZR2002 in treated tumors relative to ZR2002-treated tumors [2],IC50 (U2-OS) [nM],fold more potent than JS84 (Saos-2) [fold],concentrations of ZR2002 metabolite in treated tumors and plasma vs ZR2002-treated ([2]; tumors and plasma)
ClCCN(CCCl)c1ccc2ncnc(Nc3cccc(Br)c3)c2c1 [JS61],1590 ± 100,detectable EGFR phosphorylation,remained largely intact,five times lower,1390 ± 20,–,–
ClCCNc1ccc2ncnc(Nc3cccc(Br)c3)c2c1 [ZR2002],80 ± 10,reduced,partially metabolized into its deschloroethyl metabolite “RB10” (peak 1) and RB10-N-acetyl (peak 2),–,80 ± 10,7,–
CN(CCCl)c1ccc2ncnc(Nc3cccc(Br)c3)c2c1 [JS84],250 ± 40,detectable EGFR phosphorylation,"partially intact and largely converted into RB10-Methyl (peak 7), RB10 (1) and RB10-N-Acetyl (2)",five times lower,180 ± 30,–,significantly lower
